# In patent publication US8143025B2, “Antibodies against vascular endothelial growth factor receptor-1” (ImClone LLC, priority 2004, dated 2012):
# “Also recorded” adds a separate entry of the source.
# Assays:
# GEO xenograft = assay: GEO colon cancer xenograft; type: in vivo, mouse; conditions: monotherapy, FIG. 26C
# Protocol: (§1) Female athymic nu/nu mice, 6-8 weeks of age, were injected subcutaneously on the lateral dorsal surface with 0.4 mL volume of a suspension containing a human tumor cell line in media, diluted 1:1 with MATRIGEL™ (BD Biosciences). The cell lines used in xenograft models, with the cell doses indicated in parenthesis (10^6 cells/mouse), were: human colon carcinoma cell lines DLD-I (5), GEO (5) and HT-29 (5); human breast carcinoma cell lines DU4475 (2), MDA-MB-231 (5), MDA-MB-435 (5), and BT474 (5). When tumors reached approximately 200-300 mm^3, mice were randomized by tumor size and divided into treatment groups. Tumor growth was evaluated approximately twice weekly, with tumor volume calculated as π/6* (Length*Width^2), where Length=longest diameter and Width=diameter perpendicular to Length. Tumor dimensions were measured with calipers. T/C % was calculated as 100*(Final Treatment Tumor Volume/Initial Treatment Tumor Volume)/(Final Control Tumor Volume/Initial Control Tumor Volume).
# (§2) 18F1 was diluted in 0.9% USP saline (Braun) or phosphate buffered saline (PBS) and administered intraperitoneally in a volume of 0.5 mL per mouse. The effect of treatment on tumor growth was analyzed using repeated measures analysis of variance (RM ANOVA), p<0.05 was considered significant.
# MDA-MB-231 xenograft = assay: MDA-MB-231 breast tumor xenograft; type: in vivo, mouse
# Protocol: Mice in control groups received an equal volume of saline solution. Treatment of animals was continued for the duration of the experiment. Tumors were measured twice each week with calipers. Tumor volumes were calculated using the formula [π/6 (w1×w2×w2)], where “w1” represents the largest tumor diameter and “w2” represents the smallest tumor diameter. […] When tumors reached approximately 200-300 mm^3, mice were randomized by tumor size and divided into treatment groups. Tumor growth was evaluated approximately twice weekly, with tumor volume calculated as π/6* (Length*Width^2), where Length=longest diameter and Width=diameter perpendicular to Length. Tumor dimensions were measured with calipers. T/C % was calculated as 100*(Final Treatment Tumor Volume/Initial Treatment Tumor Volume)/(Final Control Tumor Volume/Initial Control Tumor Volume). […] The effect of treatment on tumor growth was analyzed using repeated measures analysis of variance (RM ANOVA), p<0.05 was considered significant. […] Antibody treatments administered at a constant dose per mouse were administered in a volume of 0.5 mL per mouse. Antibody and cytotoxic treatments administered at a dose proportional to body weight were given in a volume of 10 μL per gram body weight. […] AU treatments were administered i.p. The effect of treatments on tumor growth were analyzed using repeated measures analysis of variance (RM ANOVA), p<0.05 was considered significant.
# SW480 cells = assay: Invasion through MATRIGEL coated membrane; type: cell-based, human; conditions: 66 nM antibody, 10 ng/mL VEGF-A or 50 ng/mL VEGF-B, 48 hours, p<0.05, FIG. 24
# Protocol: HT-29 cells (2.5×1 10^4) or SW480 cells (1.5×1 10^4) were incubated in medium containing 1% FBS with the anti-VEGFR-1 antibody 18F1 ([…]) 8.0-μm pore size membrane insert (Becton Dickinson Labware, Bedford, Mass.). The inserts were placed into lower chambers containing 10 ng/mL VEGF-A (R&D Systems) or 50 ng/mL VEGF-B (R&D Systems) for 48 hours. Cells remaining in the top chamber of the inserts were removed with a cotton swab. Cells migrating to the underside of the inserts were stained with Diff-Quik (Harleco, Gibbstown, N.J.) and counted in ten random fields at 100× magnification. Statistical analysis was performed using InStat Statistical Software (V2.03, GraphPad Software, San Diego, Calif.).
# [1] = biological target: T1, VEGFR-I on PAE-VEGFR-I expressing cells (Homo sapiens, UniProt P17948); assay: Surface VEGFR-I blocking assay (125I-VEGF); type: binding; conditions: porcine aorta endothelial cells, FIG. 9
# T1 construct: host or cells: porcine aorta endothelial (PAE) cells
# Protocol: The binding of ^125I-VEGF to VEGFR-I on cell surface was performed using PAE-VEGFR-I expressing cells. […] Confluent cells were incubated in serum- and growth supplement-free Dulbecco's Modified Eagle Medium (DMEM)ZF-12 medium (Invitrogen, Carlsbad, Calif.) for 24 hours. Cells were rinsed once with ice-cold DMEMZF-12 medium containing 0.025 M HEPES and 1 mgZml bovine serum albumin (BSA). A serial dilution of anti-VEGFR-I antibody 18F1 or cold VEGF at the concentration of a 200-fold molar excess of labeled VEGF was added to each well in the plate and incubated at 4° C. for 1 hour. After wash, ^125I-VEGF was added at the concentration of 2 ngZml and was incubated at 4° C. for 2 hours on a platform shaker. The cells were washed three times with PBS containing 1 mgZml BSA and 0.25 mM CaCl2, and were incubated for 5 minutes in the presence of 1% Triton X-100, 1 mgZml BSA, and 0.16% NaN3 to remove bound VEGF. The soluble content of each well was counted in a gamma counter. The assays were performed in triplicate in at least three independent experiments and the data were analyzed using Prism GraphPad software 3.03.
# HT-29 xenograft = assay: HT-29 colon cancer xenograft; type: in vivo, mouse; conditions: monotherapy, FIG. 26A
# Protocol: as §1, §2
# [2] = system: ERK1/2 downstream signaling; assay: ERK1/2 activation Western blot, PAE-VEGFR-I cells; type: cell-based; conditions: PAE-VEGFR-I transfectant cells, FIGS. 12-14
# Protocol: Autophosphorylation of the VEGFR-I induced by its ligands and resulting activation of a classical MAPK, extracellular signal-regulated protein kinases 1Z2 (ERK1Z2) and the PBK/Atk downstrean signaling pathways mediate cellular biological responses such as proliferation, motility, survival, and differentiation. The ability of an anti-VEGFR-1 antibody to inhibit phosphorylation of VEGFR-I and activation of ERK1 Z2 and the Akt kinases downstream signaling were determined by using the PAE-VEGFR-I transfectant and BT474 breast carcinoma cells.
# PAE-VEGFR-I and BT474 cells were seeded at a density of 5×10^5Zwell in […] plates and cultured in serum-free medium for 18-48 hours. After replacing the culture medium, the cells were treated at 37° C. with anti-VEGFR-I antibody clones 6F9, 15F1 1, and 18F1 or isotype control for 1 hour and then incubated with 50 ng/ml of VEGF or 100 ng/ml of PlGF for 10 minutes. […] Western blot of phosphorylated VEGFR-I was detected using […] antibody (PY-20, Santa Cruz Biotechnology, Santa Cruz, Calif.). Proteins were detected using and […] chemiluminescence system (ECL)(Amersham Pharmacia Biotech, Piscataway, N.J.), and quantified by densitometry using NIH Image (National Institute of Mental Health, Bethesda, Md.). […]
# T1 sequence (P17948 27-1338): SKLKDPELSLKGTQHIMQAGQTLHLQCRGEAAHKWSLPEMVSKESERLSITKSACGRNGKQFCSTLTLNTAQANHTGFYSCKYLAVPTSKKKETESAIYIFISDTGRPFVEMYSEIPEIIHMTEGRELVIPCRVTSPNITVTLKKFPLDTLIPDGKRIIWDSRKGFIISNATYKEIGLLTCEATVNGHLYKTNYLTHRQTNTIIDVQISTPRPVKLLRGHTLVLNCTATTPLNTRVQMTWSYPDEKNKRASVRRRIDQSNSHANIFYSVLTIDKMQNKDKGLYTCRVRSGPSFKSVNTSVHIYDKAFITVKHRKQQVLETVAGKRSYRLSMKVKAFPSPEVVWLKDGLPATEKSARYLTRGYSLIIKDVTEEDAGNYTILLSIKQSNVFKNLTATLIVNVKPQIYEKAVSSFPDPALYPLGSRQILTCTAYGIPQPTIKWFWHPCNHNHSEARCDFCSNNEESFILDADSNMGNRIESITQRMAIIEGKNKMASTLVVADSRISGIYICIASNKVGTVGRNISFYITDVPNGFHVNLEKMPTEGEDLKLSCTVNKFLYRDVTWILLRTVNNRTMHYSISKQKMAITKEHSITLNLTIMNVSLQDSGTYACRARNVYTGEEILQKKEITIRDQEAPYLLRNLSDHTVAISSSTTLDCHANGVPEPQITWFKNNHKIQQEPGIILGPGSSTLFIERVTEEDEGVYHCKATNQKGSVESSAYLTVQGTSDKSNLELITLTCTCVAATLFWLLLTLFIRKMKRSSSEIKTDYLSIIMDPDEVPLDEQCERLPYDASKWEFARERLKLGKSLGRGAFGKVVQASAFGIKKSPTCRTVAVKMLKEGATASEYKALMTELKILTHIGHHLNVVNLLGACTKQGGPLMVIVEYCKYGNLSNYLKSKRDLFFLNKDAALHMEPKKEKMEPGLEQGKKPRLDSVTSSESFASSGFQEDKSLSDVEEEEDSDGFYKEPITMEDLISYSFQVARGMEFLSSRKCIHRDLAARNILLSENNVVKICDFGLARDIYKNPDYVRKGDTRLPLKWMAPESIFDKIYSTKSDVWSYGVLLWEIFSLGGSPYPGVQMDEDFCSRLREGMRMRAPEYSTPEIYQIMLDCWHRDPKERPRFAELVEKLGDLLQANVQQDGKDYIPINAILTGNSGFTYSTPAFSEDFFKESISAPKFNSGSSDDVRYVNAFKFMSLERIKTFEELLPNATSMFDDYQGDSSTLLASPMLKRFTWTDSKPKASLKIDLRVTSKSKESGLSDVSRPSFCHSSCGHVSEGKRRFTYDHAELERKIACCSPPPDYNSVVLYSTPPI
substance,measurement,setting,value
"18F1: human anti-VEGFR-1 monoclonal antibody clone; VL SEQ ID NO: 16, VH SEQ ID NO: 20 [Clone 18F1]",antitumor effect against GEO colon cancer xenografts,GEO xenograft,significant antitumor effect
same,tumor growth of the MDA-MB-231 xenograft,"MDA-MB-231 xenograft; 0.5 or 1 mg per dose three times each week, ANOVA p<0.05, FIG. 20B",statistically significant suppression
same,growth of MDA-MB-231 xenograft tumors,"MDA-MB-231 xenograft; Example 9, intraperitoneal, p<0.05",significantly (p<0.05) suppressed
same,"tumor growth inhibition, MDA-MB-231 xenograft","MDA-MB-231 xenograft; Example 11, p<0.05, FIG. 28A",significant tumor growth inhibition
same,VEGFR-I ligand induced invasion,SW480 cells,completely blocked
same,blocking of 125I-VEGF binding to native VEGFR-I,[1],strong blocking activity
same,antitumor effect against HT-29 colon cancer xenografts,HT-29 xenograft,significant antitumor effect
same,PlGF and VEGF induced activation of ERK1/2 downstream signaling,[2],dramatically inhibited; also recorded: inhibition
